Columns and labels:
[1] = target: uPAR.uPA protein-protein interaction (Homo sapiens, UniProt Q03405); test: Fluorescence polarization, urokinase receptor with peptide AE147; format: binding; settings: 24 h at 4° C.
Text: The selectivity of the compounds was explored with two unrelated protein-protein interactions between (i) the urokinase receptor (uPAR) and its ligand urokinase (uPA); and (ii) the a subunit of the voltage-gated calcium channel Cav2.2 with its β subunit Cavβ3. […] Both proteins have cysteine residues capable of forming covalent adducts.
FIG. 4D illustrates BLI measurements of the binding of TEAD4 to captured Yap when biotin-labeled GST-Yap1 was captured onto streptavidin-conjugated biolayer interferometry sensors which were dipped into varying concentrations of TEAD4. (mean±s.d.; n=3). […] FIG. 4F illustrates measured fluorescence polarization when increasing concentration of HIS-TEAD2 was mixed with 16 nM FAM-Yap60-99 peptide (mean±s.d.; n=3). FIG. 4G illustrates measured fluorescence polarization when HIS-TEAD2 was incubated with increasing concentration of compounds for 24 h at 4° C. followed by addition of FAM-Yap60-99 (mean±s.d.; n=3). FIG. 4H illustrates measured fluorescence polarization when urokinase receptor (uPAR) was incubated with varying concentrations of compounds for 24 h at 4° C. followed by addition of a urokinase-derived fluorescently-labeled peptide AE147 (mean±s.d.; n=3). […]

[2] = target: T1, TEAD4 binding to full-length Yap1 (Homo sapiens, UniProt Q15561); test: Biolayer interferometry, TEAD4 binding to captured full-length GST-Yap1; settings: 100 nM TEAD4 pre-incubated 24 or 48 h at 4° C.
T1 construct: TEAD4 (217-434), TEAD4 (217-434) Cys367Ser mutant and Yap1 (Full-length) were expressed as GST-fusion proteins; GST (N); made in house; host or cells: E. coli BL-21 (DE3), pGEX-6P-1
T1 sequence (Q15561 217-434): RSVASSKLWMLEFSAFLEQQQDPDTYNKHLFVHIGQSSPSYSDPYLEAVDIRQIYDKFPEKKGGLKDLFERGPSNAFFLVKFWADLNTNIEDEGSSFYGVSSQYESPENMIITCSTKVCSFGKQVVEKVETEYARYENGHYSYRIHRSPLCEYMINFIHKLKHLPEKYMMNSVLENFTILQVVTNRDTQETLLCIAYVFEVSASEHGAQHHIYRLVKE
Experimental: Biolayer interferometry was measured on OctetRed 384 (ForteBio, Menlo Park, Calif.) using PBS with 0.025% v/v Tween-20 at 30° C. with constant shaking at 1000 rpm. Streptavidin-conjugated sensors (ForteBio, Menlo Park, Calif.) were loaded with 30 μg/ml biotin-labeled GST-Yap or biocytin and were introduced to 1-1000 nM TEAD4. The sensors were regenerated with 5 mM HCl solution after each interaction. For compound inhibition study, 100 nM TEAD4 was pre-incubated with […] compound 2 in 2% v/v DMSO for 24 h at 4° C. before interaction with captured GST-Yap.

[3] = target: T2, GST-TEAD4 (Homo sapiens, UniProt Q15561); test: Size-exclusion chromatography for protein aggregation; settings: 100 μM, 24 h at 4° C.
T2 construct: TEAD4 (217-434), TEAD4 (217-434) Cys367Ser mutant and Yap1 (Full-length) were expressed as GST-fusion proteins; made in house; host or cells: E. coli BL-21 (DE3), pGEX-6P-1
T2 sequence (Q15561 217-434): as above
Experimental: 2 ml of 6.3 μM GST-TEAD4 in PBS was incubated with 100 μM 2 compound 2 in 2% v/v DMSO or DMSO without compound for 24 h at 4° C. After the incubation, the samples were injected into a HiLoad 26/600 Superdex 200 pg SEC column, pre-equilibrated with PBS. The elution profile of the column was analyzed for protein aggregation.

[4] = tested on: TEAD4 Cys367Ala mutant transcriptional activity; test: TEAD4 luciferase reporter assay with transfected Cys367Ala mutant in HEK-293 cells; format: cell-based
Experimental: HEK-293 cells plated at 2.4×10^4 cells/well in a 96-well microplate were transfected after 24 hours with the a pGL3.1 reporter containing the CTGF promoter and a plasmid encoding TK-Renilla luciferase in combination with control vectors or vectors that express Yap1 and TEAD4. After 48 h cells, were treated with 0.5, 1.0, 5.0 or 10 μM of compound 2 for another 48 h. Luciferase activity was measured according to the Dual-Glo luciferase assay (Promega) instructions using a Biotek Synergy Neo2 plate reader. Relative luciferase activity represents the ratio of firefly/renilla luminescence values.
The effect of compound 2 on the intracellular transcriptional activity of TEAD4 was compared to its effects on the interaction of TEAD4 with Yap (FIG. 7A-7F). […] To further establish the selectivity of the small molecule, the TEAD4 transcriptional activity luciferase reporter assays were repeated using instead transfected Cys367Ala mutant. […] To establish that compound 2 forms a covalent adduct with TEAD4 in cells, a biotin-conjugated variant termed compound 9 was synthesized. […] (A) The activity of the TEAD4 luciferase reporter was measured in HEK-293 cells at 24 h treated with either vehicle or compound 2 (TED-347); mean±s.d.; n=3 replicates. (B) The activity of the TEAD4 luciferase reporter was measured in HEK-293 cells treated with either vehicle or compound 2 (TED-347); mean±s.d.; n=2 replicates. […]

[5] = target: TEAD4.Yap1 interaction (Homo sapiens, UniProt Q15561); test: Co-immunoprecipitation of Myc-tagged TEAD4 with Flag-tagged Yap1 in HEK293 cells; format: cell-based; parameters: expressed in transfected cells; host or cells: HEK293; settings: 5 μM, 48 hours
TEAD4.Yap1 interaction, sequence (Q15561 whole entry): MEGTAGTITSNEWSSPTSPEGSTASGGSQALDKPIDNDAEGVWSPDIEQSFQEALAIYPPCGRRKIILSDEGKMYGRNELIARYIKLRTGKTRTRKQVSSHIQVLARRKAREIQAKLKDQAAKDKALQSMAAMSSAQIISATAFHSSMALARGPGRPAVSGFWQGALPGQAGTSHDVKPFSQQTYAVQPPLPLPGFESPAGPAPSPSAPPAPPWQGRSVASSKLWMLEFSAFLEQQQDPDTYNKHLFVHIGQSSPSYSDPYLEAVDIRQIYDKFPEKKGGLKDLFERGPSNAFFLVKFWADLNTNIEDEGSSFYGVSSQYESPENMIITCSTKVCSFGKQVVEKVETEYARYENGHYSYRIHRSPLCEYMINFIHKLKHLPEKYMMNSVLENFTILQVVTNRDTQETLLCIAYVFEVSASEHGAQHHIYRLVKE
Experimental: HEK293 cells transfected with Flag-YAP1 alone or in combination with myc-TEAD4 were incubated with DMSO or the indicated amount of compounds for 48 hours. Cells were harvested in lysis buffer (50 mM Tris-HCl, pH 7.3, 150 mM NaCl, 0.5 mM EDTA, 1% Triton X-100, PhosSTOP phosphatase inhibitor cocktail, and complete EDTA-free protease inhibitors cocktail). Extracts were immunoprecipitated with magnetic beads coupled to the M2 (anti-Flag) antibody (Sigma-Aldrich) for 4 h at 4° C. Dynabeads were then washed and bound proteins were denatured and eluted according to the manufacturer's instructions. Relative levels of myc-TEAD4 from each complex was then measured by immunoblot analysis with the anti-c-Myc antibody (1:5,000, Sigma-Aldrich).

uPAR.uPA protein-protein interaction, sequence (Q03405 23-305 limits assumed): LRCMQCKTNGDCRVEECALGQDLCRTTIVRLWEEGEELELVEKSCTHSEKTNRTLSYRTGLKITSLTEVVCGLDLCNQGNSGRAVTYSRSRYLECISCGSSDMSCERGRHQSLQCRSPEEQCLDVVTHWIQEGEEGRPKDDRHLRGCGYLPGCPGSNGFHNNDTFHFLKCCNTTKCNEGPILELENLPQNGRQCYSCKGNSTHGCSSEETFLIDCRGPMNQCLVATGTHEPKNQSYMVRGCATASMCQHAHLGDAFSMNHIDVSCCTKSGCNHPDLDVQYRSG

For O=C(CCl)c1ccccc1Nc1cccc(C(F)(F)F)c1 [Compound 2, 2-chloro-1-(2-((3-(trifluoromethyl)phenyl)amino)phenyl)ethanone], the “inhibition of uPAR.uPA interaction” value [1] was “no inhibition”, the “inhibition of TEAD4 binding to full-length Yap1” value [2] was “dose- and time-dependent inhibition” and the “aggregation of GST-TEAD4” value [3] was “No significant aggregation”. The “inhibition of mutant TEAD4 transcriptional activity” value [4] was “did not result in the inhibition” and the “co-immunoprecipitation of Myc-tagged TEAD4 with Flag-Tagged Yap1” value [5] was “significant loss of co-immunoprecipitation”.
